Results as given in ChEMBL document CHEMBL1134430, “Synthesis and biological activity of novel macrocyclic antifungals: acylated conjugates of the ornithine moiety of the lipopeptidolactone FR901469” (2001).
≈ marks a conversion by molar mass, not a printed value.

Assays:
Format in all cases: functional
Candida albicans [1] = assay: Minimum inhibitory concentration against Candida albicans FP579 strain
Candida tropicalis [2] = assay: Minimum inhibitory concentration against Candida tropicalis 8002 strain
Candida parapsilosis = assay: Minimum inhibitory concentration against Candida parapsilosis 15001 strain; settings: Lodderomyces parapsilosis
[3] = test system: Meyerozyma guilliermondii; assay: Minimum inhibitory concentration against Candida guilliermondii FP587 strain
Candida tropicalis [4] = assay: Minimum inhibitory concentration against Candida tropicalis 8001 strain
Mus musculus [5] = species: Mus musculus; assay: Hemolytic ability to hemolyze ICR mouse RBCs in microtiter red blood cell hemolysis assay; set-up: concentration or dose not given beside the values
Candida albicans [6] = assay: Minimum inhibitory concentration against Candida albicans FP633 strain
Mus musculus [7] = assay: In vivo activity in Disseminated Murine Candidiasis Model
Mus musculus [8] = assay: (§1) Ratio of In vivo activity of drug in Disseminated Murine Candidiasis Model to that of In vivo activity of FR-901469 in Disseminated Murine Candidiasis Model
Aspergillus fumigatus = assay: In vitro minimum inhibitory concentration against Aspergillus fumigatus TIMM0063 FPI305 was determined by the broth microdilution method.
[9] = as §1

Compound	MIC (Candida albicans [1])	MIC (Candida tropicalis [2])	MIC (Candida parapsilosis)	MIC [3]	MIC (Candida tropicalis [4])	Hemolysis (Mus musculus [5])	MIC (Candida albicans [6])	ED50 (Mus musculus [7])	Ratio (Mus musculus [8])	MIC (Aspergillus fumigatus)	Ratio [9]
CCCCCCCCCCCCC[C@@H]1CC(=O)N[C@H]([C@@H](C)O)C(=O)N[C@H](C)C(=O)N[C@@H](Cc2ccc(O)cc2)C(=O)N[C@@H](C(C)C)C(=O)N2C[C@H](O)C[C@H]2C(=O)N[C@H]([C@@H](C)O)C(=O)N[C@@H]([C@@H](C)O)C(=O)N2CC[C@H](O)[C@H]2C(=O)N[C@@H]([C@H](O)CC(N)=O)C(=O)NCC(=O)N[C@H]([C@@H](C)O)C(=O)N[C@@H](CCCNC(=O)CO)C(=O)O1	0.78 µg/mL (≈ 0.49 µM)	0.78 µg/mL (≈ 0.49 µM)	0.78 µg/mL (≈ 0.49 µM)	0.39 µg/mL (≈ 0.245 µM)	1.56 µg/mL (≈ 0.98 µM)	9%	0.39 µg/mL (≈ 0.245 µM)	–	–	–	–
CCCCCCCCCCCCC[C@@H]1CC(=O)N[C@H]([C@@H](C)O)C(=O)N[C@H](C)C(=O)N[C@@H](Cc2ccc(O)cc2)C(=O)N[C@@H](C(C)C)C(=O)N2C[C@H](O)C[C@H]2C(=O)N[C@H]([C@@H](C)O)C(=O)N[C@@H]([C@@H](C)O)C(=O)N2CC[C@H](O)[C@H]2C(=O)N[C@@H]([C@H](O)CC(N)=O)C(=O)NCC(=O)N[C@H]([C@@H](C)O)C(=O)N[C@@H](CCCNC(C)=O)C(=O)O1	0.78 µg/mL (≈ 0.495 µM)	1.56 µg/mL (≈ 0.99 µM)	1.56 µg/mL (≈ 0.99 µM)	0.78 µg/mL (≈ 0.495 µM)	1.56 µg/mL (≈ 0.99 µM)	5%	0.39 µg/mL (≈ 0.247 µM)	4 mg/kg	6.2	1 µg/mL (≈ 0.635 µM)	–
CCCCCCCCCCCCC[C@@H]1CC(=O)N[C@H]([C@@H](C)O)C(=O)N[C@H](C)C(=O)N[C@@H](Cc2ccc(O)cc2)C(=O)N[C@@H](C(C)C)C(=O)N2C[C@H](O)C[C@H]2C(=O)N[C@H]([C@@H](C)O)C(=O)N[C@@H]([C@@H](C)O)C(=O)N2CC[C@H](O)[C@H]2C(=O)N[C@@H]([C@H](O)CC(N)=O)C(=O)NCC(=O)N[C@H]([C@@H](C)O)C(=O)N[C@@H](CCCNC(=O)[C@@H](N)CCCN)C(=O)O1.Cl	0.78 µg/mL	1.56 µg/mL	0.39 µg/mL	0.39 µg/mL	1.56 µg/mL	20%	0.39 µg/mL	0.54 mg/kg	–	0.5 µg/mL	0.8
CCCCCCCCCCCCC[C@@H]1CC(=O)N[C@H]([C@@H](C)O)C(=O)N[C@H](C)C(=O)N[C@@H](Cc2ccc(O)cc2)C(=O)N[C@@H](C(C)C)C(=O)N2C[C@H](O)C[C@H]2C(=O)N[C@H]([C@@H](C)O)C(=O)N[C@@H]([C@@H](C)O)C(=O)N2CC[C@H](O)[C@H]2C(=O)N[C@@H]([C@H](O)CC(N)=O)C(=O)NCC(=O)N[C@H]([C@@H](C)O)C(=O)N[C@@H](CCCNC(=O)CN)C(=O)O1.Cl	0.78 µg/mL	0.78 µg/mL	0.78 µg/mL	0.78 µg/mL	0.78 µg/mL	67%	0.39 µg/mL	–	–	0.5 µg/mL	–
CCCCCCCCCCCCC[C@@H]1CC(=O)N[C@H]([C@@H](C)O)C(=O)N[C@H](C)C(=O)N[C@@H](Cc2ccc(O)cc2)C(=O)N[C@@H](C(C)C)C(=O)N2C[C@H](O)C[C@H]2C(=O)N[C@H]([C@@H](C)O)C(=O)N[C@@H]([C@@H](C)O)C(=O)N2CC[C@H](O)[C@H]2C(=O)N[C@@H]([C@H](O)CC(N)=O)C(=O)NCC(=O)N[C@H]([C@@H](C)O)C(=O)N[C@@H](CCCNC(=O)[C@@H]2CCN2)C(=O)O1.Cl	0.78 µg/mL	0.39 µg/mL	0.78 µg/mL	0.78 µg/mL	0.39 µg/mL	27%	0.39 µg/mL	–	–	–	–
CCCCCCCCCCCCC[C@@H]1CC(=O)N[C@H]([C@@H](C)O)C(=O)N[C@H](C)C(=O)N[C@@H](Cc2ccc(O)cc2)C(=O)N[C@@H](C(C)C)C(=O)N2C[C@H](O)C[C@H]2C(=O)N[C@H]([C@@H](C)O)C(=O)N[C@@H]([C@@H](C)O)C(=O)N2CC[C@H](O)[C@H]2C(=O)N[C@@H]([C@H](O)CC(N)=O)C(=O)NCC(=O)N[C@H]([C@@H](C)O)C(=O)N[C@@H](CCCNC(=O)CCCCN)C(=O)O1.Cl	0.78 µg/mL	0.78 µg/mL	0.39 µg/mL	0.39 µg/mL	0.78 µg/mL	20%	0.39 µg/mL	–	–	–	–
CCCCCCCCCCCCC[C@@H]1CC(=O)N[C@H]([C@@H](C)O)C(=O)N[C@H](C)C(=O)N[C@@H](Cc2ccc(O)cc2)C(=O)N[C@@H](C(C)C)C(=O)N2C[C@H](O)C[C@H]2C(=O)N[C@H]([C@@H](C)O)C(=O)N[C@@H]([C@@H](C)O)C(=O)N2CC[C@H](O)[C@H]2C(=O)N[C@@H]([C@H](O)CC(N)=O)C(=O)NCC(=O)N[C@H]([C@@H](C)O)C(=O)N[C@@H](CCCNC(=O)CCN)C(=O)O1.Cl	0.39 µg/mL	0.78 µg/mL	0.39 µg/mL	0.39 µg/mL	0.78 µg/mL	44%	0.39 µg/mL	–	–	–	–
CCCCCCCCCCCCC[C@@H]1CC(=O)N[C@H]([C@@H](C)O)C(=O)N[C@H](C)C(=O)N[C@@H](Cc2ccc(O)cc2)C(=O)N[C@@H](C(C)C)C(=O)N2C[C@H](O)C[C@H]2C(=O)N[C@H]([C@@H](C)O)C(=O)N[C@@H]([C@@H](C)O)C(=O)N2CC[C@H](O)[C@H]2C(=O)N[C@@H]([C@H](O)CC(N)=O)C(=O)NCC(=O)N[C@H]([C@@H](C)O)C(=O)N[C@@H](CCCNC(=O)CCCN)C(=O)O1.Cl	1.56 µg/mL	0.78 µg/mL	0.78 µg/mL	0.78 µg/mL	1.56 µg/mL	30%	0.78 µg/mL	–	–	–	–
CCCCCCCCCCCCC[C@@H]1CC(=O)N[C@H]([C@@H](C)O)C(=O)N[C@H](C)C(=O)N[C@@H](Cc2ccc(O)cc2)C(=O)N[C@@H](C(C)C)C(=O)N2C[C@H](O)C[C@H]2C(=O)N[C@H]([C@@H](C)O)C(=O)N[C@@H]([C@@H](C)O)C(=O)N2CC[C@H](O)[C@H]2C(=O)N[C@@H]([C@H](O)CC(N)=O)C(=O)NCC(=O)N[C@H]([C@@H](C)O)C(=O)N[C@@H](CCCNC(=O)CCCCCN)C(=O)O1.Cl	0.78 µg/mL	0.78 µg/mL	0.39 µg/mL	0.78 µg/mL	0.78 µg/mL	14%	0.39 µg/mL	–	–	–	–
CCCCCCCCCCCCC[C@@H]1CC(=O)N[C@H]([C@@H](C)O)C(=O)N[C@H](C)C(=O)N[C@@H](Cc2ccc(O)cc2)C(=O)N[C@@H](C(C)C)C(=O)N2C[C@H](O)C[C@H]2C(=O)N[C@H]([C@@H](C)O)C(=O)N[C@@H]([C@@H](C)O)C(=O)N2CC[C@H](O)[C@H]2C(=O)N[C@@H]([C@H](O)CC(N)=O)C(=O)NCC(=O)N[C@H]([C@@H](C)O)C(=O)N[C@@H](CCCNC(=O)CN(C)C)C(=O)O1.Cl	0.78 µg/mL	0.78 µg/mL	0.39 µg/mL	0.2 µg/mL	0.78 µg/mL	10%	0.39 µg/mL	9.1 mg/kg	10.4	0.5 µg/mL	–
CCCCCCCCCCCCC[C@@H]1CC(=O)N[C@H]([C@@H](C)O)C(=O)N[C@H](C)C(=O)N[C@@H](Cc2ccc(O)cc2)C(=O)N[C@@H](C(C)C)C(=O)N2C[C@H](O)C[C@H]2C(=O)N[C@H]([C@@H](C)O)C(=O)N[C@@H]([C@@H](C)O)C(=O)N2CC[C@H](O)[C@H]2C(=O)N[C@@H]([C@H](O)CC(N)=O)C(=O)NCC(=O)N[C@H]([C@@H](C)O)C(=O)N[C@@H](CCCNC(=O)CNC)C(=O)O1.Cl	0.39 µg/mL	0.78 µg/mL	0.39 µg/mL	0.39 µg/mL	0.78 µg/mL	54%	0.2 µg/mL	–	–	–	–
CCCCCCCCCCCCC[C@@H]1CC(=O)N[C@H]([C@@H](C)O)C(=O)N[C@H](C)C(=O)N[C@@H](Cc2ccc(O)cc2)C(=O)N[C@@H](C(C)C)C(=O)N2C[C@H](O)C[C@H]2C(=O)N[C@H]([C@@H](C)O)C(=O)N[C@@H]([C@@H](C)O)C(=O)N2CC[C@H](O)[C@H]2C(=O)N[C@@H]([C@H](O)CC(N)=O)C(=O)NCC(=O)N[C@H]([C@@H](C)O)C(=O)N[C@@H](CCCN)C(=O)O1.Cl	0.39 µg/mL	0.39 µg/mL	0.39 µg/mL	0.39 µg/mL	0.39 µg/mL	100%	0.39 µg/mL	0.44 mg/kg	–	0.5 µg/mL	–
C[C@@H]1[C@H](O)[C@@H](C)/C=C/C=C/C=C/C=C/C=C/C=C/C=C/[C@H](O[C@@H]2O[C@H](C)[C@@H](O)[C@H](N)[C@@H]2O)C[C@@H]2O[C@](O)(C[C@@H](O)C[C@@H](O)[C@H](O)CC[C@@H](O)C[C@@H](O)CC(=O)O[C@H]1C)C[C@H](O)[C@H]2C(=O)O [AMPHOTERICIN B]	–	–	–	–	–	–	–	0.132 mg/kg	–	–	–
OC(Cn1cncn1)(Cn1cncn1)c1ccc(F)cc1F [FLUCONAZOLE]	–	–	–	–	–	–	–	> 20 mg/kg	–	–	–
